# Bridge positions count the residues as written; N and C are the ends. Square brackets hold non-standard residues; d marks the D form. Peptide text beside a SMILES is read from it. Hyp = O=C(O)[C@@H]1C[C@@H](O)CN1
# Biological target: OCT MVIIA (SNX-111) binding site (site 1) (Rattus norvegicus, UniProt Q02294)
# Assay: biochemical
# Sequence of OCT MVIIA (SNX-111) binding site (site 1) (Q02294 whole entry, looked up): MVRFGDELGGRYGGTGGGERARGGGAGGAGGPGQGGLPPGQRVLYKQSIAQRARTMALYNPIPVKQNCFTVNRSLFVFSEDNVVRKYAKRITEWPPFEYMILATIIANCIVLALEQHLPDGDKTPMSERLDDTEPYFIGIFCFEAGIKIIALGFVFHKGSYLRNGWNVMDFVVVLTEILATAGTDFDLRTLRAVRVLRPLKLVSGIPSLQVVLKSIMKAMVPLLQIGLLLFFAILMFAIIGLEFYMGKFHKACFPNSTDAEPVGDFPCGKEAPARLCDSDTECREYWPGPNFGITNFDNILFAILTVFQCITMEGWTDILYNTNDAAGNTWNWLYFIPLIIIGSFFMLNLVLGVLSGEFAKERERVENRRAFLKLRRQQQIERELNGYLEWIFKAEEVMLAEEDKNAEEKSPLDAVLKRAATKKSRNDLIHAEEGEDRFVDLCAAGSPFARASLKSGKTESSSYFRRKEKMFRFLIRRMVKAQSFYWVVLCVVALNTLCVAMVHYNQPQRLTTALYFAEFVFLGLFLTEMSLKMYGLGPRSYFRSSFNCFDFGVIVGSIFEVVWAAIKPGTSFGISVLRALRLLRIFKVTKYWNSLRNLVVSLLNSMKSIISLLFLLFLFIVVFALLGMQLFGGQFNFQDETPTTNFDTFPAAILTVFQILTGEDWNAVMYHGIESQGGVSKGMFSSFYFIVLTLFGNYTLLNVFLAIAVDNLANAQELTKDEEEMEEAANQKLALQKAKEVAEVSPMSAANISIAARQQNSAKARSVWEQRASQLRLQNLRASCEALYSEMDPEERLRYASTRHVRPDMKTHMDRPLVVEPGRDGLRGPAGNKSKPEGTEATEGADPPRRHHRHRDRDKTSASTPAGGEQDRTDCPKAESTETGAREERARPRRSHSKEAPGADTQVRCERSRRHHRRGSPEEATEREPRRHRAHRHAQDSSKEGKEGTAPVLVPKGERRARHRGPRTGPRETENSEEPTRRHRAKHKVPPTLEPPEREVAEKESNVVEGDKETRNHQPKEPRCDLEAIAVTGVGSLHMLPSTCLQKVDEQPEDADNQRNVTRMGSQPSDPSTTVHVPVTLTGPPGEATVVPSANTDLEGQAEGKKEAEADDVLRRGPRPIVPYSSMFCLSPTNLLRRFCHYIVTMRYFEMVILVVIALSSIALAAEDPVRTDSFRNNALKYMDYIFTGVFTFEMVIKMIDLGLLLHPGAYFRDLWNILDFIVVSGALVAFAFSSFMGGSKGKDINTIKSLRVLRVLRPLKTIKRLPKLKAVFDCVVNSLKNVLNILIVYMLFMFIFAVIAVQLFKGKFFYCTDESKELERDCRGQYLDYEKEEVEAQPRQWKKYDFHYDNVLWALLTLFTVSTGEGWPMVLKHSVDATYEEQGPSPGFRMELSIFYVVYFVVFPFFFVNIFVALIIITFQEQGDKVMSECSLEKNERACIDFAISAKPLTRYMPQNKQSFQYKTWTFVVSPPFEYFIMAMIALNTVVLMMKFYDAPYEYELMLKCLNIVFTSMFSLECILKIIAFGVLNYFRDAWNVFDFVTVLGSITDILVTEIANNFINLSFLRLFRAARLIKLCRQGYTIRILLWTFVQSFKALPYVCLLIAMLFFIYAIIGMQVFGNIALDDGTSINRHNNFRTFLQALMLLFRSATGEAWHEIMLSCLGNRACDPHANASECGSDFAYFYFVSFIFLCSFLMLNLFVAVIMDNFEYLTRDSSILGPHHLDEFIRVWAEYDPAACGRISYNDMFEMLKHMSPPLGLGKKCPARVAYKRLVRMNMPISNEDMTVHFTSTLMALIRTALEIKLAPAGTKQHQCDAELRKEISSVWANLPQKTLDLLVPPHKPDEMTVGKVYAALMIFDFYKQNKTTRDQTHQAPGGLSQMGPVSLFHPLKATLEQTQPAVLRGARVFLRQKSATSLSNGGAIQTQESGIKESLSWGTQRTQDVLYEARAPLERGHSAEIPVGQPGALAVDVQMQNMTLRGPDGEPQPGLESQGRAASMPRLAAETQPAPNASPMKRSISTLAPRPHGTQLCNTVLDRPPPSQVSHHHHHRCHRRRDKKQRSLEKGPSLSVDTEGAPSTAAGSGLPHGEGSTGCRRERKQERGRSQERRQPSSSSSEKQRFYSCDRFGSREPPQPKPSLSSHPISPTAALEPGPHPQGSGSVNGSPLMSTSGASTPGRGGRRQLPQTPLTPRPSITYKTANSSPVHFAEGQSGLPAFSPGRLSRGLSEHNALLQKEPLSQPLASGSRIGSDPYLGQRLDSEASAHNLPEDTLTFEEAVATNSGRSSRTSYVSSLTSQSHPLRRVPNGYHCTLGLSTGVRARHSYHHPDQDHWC
structure (smiles),measurement,value
"CC[C@H](C)[C@@H]1NC(=O)[C@H](CO)NC(=O)[C@H]([C@@H](C)O)NC(=O)[C@H](C(C)C)NC(=O)CNC(=O)[C@@H]2CSSC[C@@H]3NC(=O)[C@H](CCCNC(=N)N)NC(=O)CNC(=O)[C@H](CSSC[C@H](N)C(=O)N[C@@H](CCCNC(=N)N)C(=O)N[C@@H](CO)C(=O)N[C@@H](CO)C(=O)NCC(=O)N[C@@H](CO)C(=O)N4C[C@H](O)C[C@H]4C(=O)N2)NC(=O)[C@H](CSSC[C@@H](C(=O)N[C@H](C(N)=O)[C@@H](C)O)NC(=O)[C@H](CCCCN)NC(=O)CNC(=O)[C@H](CCCNC(=N)N)NC(=O)[C@H](Cc2ccc(O)cc2)NC3=O)NC1=O [SNX-157] (H-CRSSGS[Hyp]CGVTSICCGRCYRGKCT-NH2; disulfide 1-15, 8-18, 14-23)",IC50,1460 nM
